Reference: patent US8802661B2, “C-28 amides of modified C-3 betulinic acid derivatives as HIV maturation inhibitors” (priority 2010, dated 2014)

Test system: recombinant NL4-3 virus (Renilla luciferase in nef, Gag P373S)
Assay: HIV Cell Culture Assay (luciferase reporter virus in MT-2 cells)
Format: cell-based
Details: NL43, read-out: EC50 Group
Method in brief: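 MT-2 cells in RPMI 1640 with 10% heat-inactivated FBS were infected with the reporter virus, made by transfecting the proviral clone into 293T cells, and cultured 4-5 days with serial inhibitor dilutions. Antiviral activity was quantified from Renilla luciferase activity measured in lysed cells.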

In the case of `C=C(C)[C@@H]1CC[C@]2(C(=O)NCCN3CCS(=O)(=O)CC3)CC[C@]3(C)[C@H](CC[C@@H]4[C@@]5(C)CC=C(c6ccc(C(=O)O)cc6F)C(C)(C)[C@@H]5CC[C@]43C)[C@@H]12` [Example 120, 4-((1R,3aS,5aR,5bR,7aR,11aS,11bR,13aR,13bR)-3a-((2-(1,1-dioxido-4-thiomorpholinyl)ethyl)carbamoyl)-1-isopropenyl-5a,5b,8,8,11a-pentamethyl-2,3,3a,4,5,5a,5b,6,7,7a,8,11,11a,11b,12,13,13a,13b-octadecahydro-1H-cyclopenta[a]chrysen-9-yl)-3-fluorobenzoic acid], the EC50 is reported as < 100 nM.
In the case of `C=C(C)[C@@H]1CC[C@]2(C(=O)NCCN3CCOCC3)CC[C@]3(C)[C@H](CC[C@@H]4[C@@]5(C)CC=C(c6ccc(C(=O)O)cc6)C(C)(C)[C@@H]5CC[C@]43C)[C@@H]12` [Example 12, 4-((1R,3aS,5aR,5bR,7aR,11aS,11bR,13aR,13bR)-5a,5b,8,8,11a-pentamethyl-3a-(2-morpholinoethylcarbamoyl)-1-(prop-1-en-2-yl)-2,3,3a,4,5,5a,5b,6,7,7a,8,11,11a,11b,12,13,13a,13b-octadecahydro-1H-cyclopenta[a]chrysen-9-yl)benzoic acid], the EC50 is reported as < 100 nM.
